# Results as given in patent US20240315993A1, “ANTIPARASITIC COMPOUNDS” (Intervet Inc., priority 2021, published 2024).
# Assays:
# [1] = system: juvenile soft ticks (Ornithodoros moubata); assay: Guinea pig - efficacy against argaside tick; format: in vivo; settings: for effective to control ticks: 5 mg/kg
# Procedure: (§1) Guinea pigs were locally co-infested (using an infestation device on a shaved skin area) with juvenile soft ticks (Ornithodoros moubata) and bed bugs (Cimex lectularius) before the treatment day (Day 0) to provide a baseline-negative control value. Guinea pigs were treated orally (by gavage) or subcutaneously at a dose of 5 mg/kg bodyweight of a test compound in a formulation of 10% DMF/Emulsifier+90% Aqua ad injectabilia.
# (§2) Repeated local infestations with both parasites were performed at different time points after treatment. Within approximately 45 min after each infestation ten engorged ticks and ten engorged bed bugs were • collected and the percentage of dead and damaged parasites per species were • assessed approximately 24 hours following collection. The efficacy was • calculated as % of inhibition ‘killed+damaged’ parasites in a treated group in comparison to the baseline-negative control (using a modified Schneider Orelli's formula).
# (§3) Results: Activity of the test compounds at different evaluation time-points (≥80% inhibition were found active): […]
# [2] = system: bed bugs (Cimex lectularius); assay: Guinea pig - efficacy against bed bug; format: in vivo; settings: for effective to control bed bugs: 5 mg/kg
# Procedure: as §1, §2, §3
# [3] = 5 mg/kg subcutaneous, after 7 days
# [4] = 5 mg/kg subcutaneous, after 10 days
# [5] = 5 mg/kg subcutaneous, after 14 days
# [6] = 5 mg/kg subcutaneous, after 17 days
# [7] = at least until Day 10, both administration routes (oral, subcutaneous)
# [8] = 5 mg/kg subcutaneous, after 21 days
# [9] = 5 mg/kg subcutaneous, after 24 days
# [10] = 5 mg/kg subcutaneous, after 28 days
# [11] = 5 mg/kg subcutaneous, after 31 days
# [12] = for at least one week, both administration routes
# [13] = 5 mg/kg subcutaneous, after 35 days
compound,measurement,setting,value
O=C(Nc1ncc(F)cc1F)c1cc(NC(=O)C2C(c3cc(Cl)c(F)c(Cl)c3)C2(Cl)Cl)ccc1Cl (stereo not drawn) [Compound 469],"activity against tick nymphs (≥80% inhibition, killed+damaged)","[1]; 5 mg/kg oral, Day 0",immediate activity
same,"activity against tick nymphs (≥80% inhibition, killed+damaged)","[1]; 5 mg/kg oral, after 7 days",activity
same,"activity against tick nymphs (≥80% inhibition, killed+damaged)","[1]; 5 mg/kg oral, after 10 days",activity
same,"activity against tick nymphs (≥80% inhibition, killed+damaged)","[1]; 5 mg/kg subcutaneous, Day 0",immediate activity
same,"activity against tick nymphs (≥80% inhibition, killed+damaged)",[1]; [3],activity
same,"activity against tick nymphs (≥80% inhibition, killed+damaged)",[1]; [4],activity
same,"activity against tick nymphs (≥80% inhibition, killed+damaged)",[1]; [5],activity
same,"activity against tick nymphs (≥80% inhibition, killed+damaged)",[1]; [6],activity
same,effective to control ticks,[1]; [7],100%
same,"activity against bed bugs (≥80% inhibition, killed+damaged)","[2]; 5 mg/kg oral, Day 0",immediate activity
same,"activity against bed bugs (≥80% inhibition, killed+damaged)","[2]; 5 mg/kg oral, after 7 days",activity
same,"activity against bed bugs (≥80% inhibition, killed+damaged)","[2]; 5 mg/kg oral, after 10 days",activity
same,"activity against bed bugs (≥80% inhibition, killed+damaged)","[2]; 5 mg/kg subcutaneous, Day 0",immediate activity
same,"activity against bed bugs (≥80% inhibition, killed+damaged)",[2]; [3],activity
same,"activity against bed bugs (≥80% inhibition, killed+damaged)",[2]; [4],activity
same,"activity against bed bugs (≥80% inhibition, killed+damaged)",[2]; [5],activity
same,"activity against bed bugs (≥80% inhibition, killed+damaged)",[2]; [6],activity
same,"activity against bed bugs (≥80% inhibition, killed+damaged)",[2]; [8],activity
same,effective to control bed bugs,[2]; [7],100%
O=C(Nc1ncc(F)cc1F)c1cc(NC(=O)C2C(c3cc(Cl)c(Cl)c(Cl)c3)C2(Cl)Cl)ccc1Cl (stereo not drawn) [Compound 470],"activity against tick nymphs (≥80% inhibition, killed+damaged)","[1]; 5 mg/kg oral, Day 0",immediate activity
same,"activity against tick nymphs (≥80% inhibition, killed+damaged)","[1]; 5 mg/kg oral, after 7 days",activity
same,"activity against tick nymphs (≥80% inhibition, killed+damaged)","[1]; 5 mg/kg oral, after 10 days",activity
same,"activity against tick nymphs (≥80% inhibition, killed+damaged)","[1]; 5 mg/kg oral, after 14 days",activity
same,"activity against tick nymphs (≥80% inhibition, killed+damaged)","[1]; 5 mg/kg oral, after 17 days",activity
same,"activity against tick nymphs (≥80% inhibition, killed+damaged)","[1]; 5 mg/kg subcutaneous, Day 0",immediate activity
same,"activity against tick nymphs (≥80% inhibition, killed+damaged)",[1]; [3],activity
same,"activity against tick nymphs (≥80% inhibition, killed+damaged)",[1]; [4],activity
same,"activity against tick nymphs (≥80% inhibition, killed+damaged)",[1]; [5],activity
same,"activity against tick nymphs (≥80% inhibition, killed+damaged)",[1]; [6],activity
same,"activity against tick nymphs (≥80% inhibition, killed+damaged)",[1]; [8],activity
same,"activity against tick nymphs (≥80% inhibition, killed+damaged)",[1]; [9],activity
same,"activity against tick nymphs (≥80% inhibition, killed+damaged)",[1]; [10],activity
same,"activity against tick nymphs (≥80% inhibition, killed+damaged)",[1]; [11],activity
same,effective to control ticks,[1]; [12],100%
same,"activity against bed bugs (≥80% inhibition, killed+damaged)","[2]; 5 mg/kg oral, Day 0",immediate activity
same,"activity against bed bugs (≥80% inhibition, killed+damaged)","[2]; 5 mg/kg oral, after 7 days",activity
same,"activity against bed bugs (≥80% inhibition, killed+damaged)","[2]; 5 mg/kg oral, after 10 days",activity
same,"activity against bed bugs (≥80% inhibition, killed+damaged)","[2]; 5 mg/kg oral, after 14 days",activity
same,"activity against bed bugs (≥80% inhibition, killed+damaged)","[2]; 5 mg/kg oral, after 17 days",activity
same,"activity against bed bugs (≥80% inhibition, killed+damaged)","[2]; 5 mg/kg oral, after 21 days",activity
same,"activity against bed bugs (≥80% inhibition, killed+damaged)","[2]; 5 mg/kg oral, after 24 days",activity
same,"activity against bed bugs (≥80% inhibition, killed+damaged)","[2]; 5 mg/kg oral, after 28 days",activity
same,"activity against bed bugs (≥80% inhibition, killed+damaged)","[2]; 5 mg/kg subcutaneous, Day 0",immediate activity
same,"activity against bed bugs (≥80% inhibition, killed+damaged)",[2]; [3],activity
same,"activity against bed bugs (≥80% inhibition, killed+damaged)",[2]; [4],activity
same,"activity against bed bugs (≥80% inhibition, killed+damaged)",[2]; [5],activity
same,"activity against bed bugs (≥80% inhibition, killed+damaged)",[2]; [6],activity
same,"activity against bed bugs (≥80% inhibition, killed+damaged)",[2]; [8],activity
same,"activity against bed bugs (≥80% inhibition, killed+damaged)",[2]; [9],activity
same,"activity against bed bugs (≥80% inhibition, killed+damaged)",[2]; [10],activity
same,"activity against bed bugs (≥80% inhibition, killed+damaged)",[2]; [11],activity
same,"activity against bed bugs (≥80% inhibition, killed+damaged)",[2]; [13],activity
same,effective to control bed bugs,[2]; [12],100%
O=C(Nc1ncc(F)cc1F)c1cc(NC(=O)C2C(c3cc(C(F)(F)F)cc(C(F)(F)F)c3)C2(Cl)Cl)ccc1Cl (stereo not drawn) [Compound 471],"activity against tick nymphs (≥80% inhibition, killed+damaged)","[1]; 5 mg/kg oral, Day 0",immediate activity
same,"activity against tick nymphs (≥80% inhibition, killed+damaged)","[1]; 5 mg/kg oral, after 7 days",activity
same,"activity against tick nymphs (≥80% inhibition, killed+damaged)","[1]; 5 mg/kg oral, after 10 days",activity
same,"activity against tick nymphs (≥80% inhibition, killed+damaged)","[1]; 5 mg/kg oral, after 14 days",activity
same,"activity against tick nymphs (≥80% inhibition, killed+damaged)","[1]; 5 mg/kg oral, after 17 days",activity
same,"activity against tick nymphs (≥80% inhibition, killed+damaged)","[1]; 5 mg/kg oral, after 21 days",activity
same,"activity against tick nymphs (≥80% inhibition, killed+damaged)","[1]; 5 mg/kg oral, after 24 days",activity
same,"activity against tick nymphs (≥80% inhibition, killed+damaged)","[1]; 5 mg/kg oral, after 28 days",activity
same,"activity against tick nymphs (≥80% inhibition, killed+damaged)","[1]; 5 mg/kg oral, after 31 days",activity
same,"activity against tick nymphs (≥80% inhibition, killed+damaged)","[1]; 5 mg/kg oral, after 35 days",activity
same,"activity against tick nymphs (≥80% inhibition, killed+damaged)","[1]; 5 mg/kg subcutaneous, Day 0",immediate activity
same,"activity against tick nymphs (≥80% inhibition, killed+damaged)",[1]; [3],activity
same,"activity against tick nymphs (≥80% inhibition, killed+damaged)",[1]; [4],activity
same,"activity against tick nymphs (≥80% inhibition, killed+damaged)",[1]; [5],activity
same,"activity against tick nymphs (≥80% inhibition, killed+damaged)",[1]; [6],activity
same,"activity against tick nymphs (≥80% inhibition, killed+damaged)",[1]; [8],activity
same,"activity against tick nymphs (≥80% inhibition, killed+damaged)",[1]; [9],activity
same,"activity against tick nymphs (≥80% inhibition, killed+damaged)",[1]; [10],activity
same,"activity against tick nymphs (≥80% inhibition, killed+damaged)",[1]; [11],activity
same,"activity against tick nymphs (≥80% inhibition, killed+damaged)",[1]; [13],activity
same,effective to control ticks,[1]; [12],100%
same,"activity against bed bugs (≥80% inhibition, killed+damaged)","[2]; 5 mg/kg oral, Day 0",immediate activity
same,"activity against bed bugs (≥80% inhibition, killed+damaged)","[2]; 5 mg/kg oral, after 7 days",activity
same,"activity against bed bugs (≥80% inhibition, killed+damaged)","[2]; 5 mg/kg oral, after 10 days",activity
same,"activity against bed bugs (≥80% inhibition, killed+damaged)","[2]; 5 mg/kg oral, after 14 days",activity
same,"activity against bed bugs (≥80% inhibition, killed+damaged)","[2]; 5 mg/kg oral, after 17 days",activity
same,"activity against bed bugs (≥80% inhibition, killed+damaged)","[2]; 5 mg/kg oral, after 21 days",activity
same,"activity against bed bugs (≥80% inhibition, killed+damaged)","[2]; 5 mg/kg oral, after 24 days",activity
same,"activity against bed bugs (≥80% inhibition, killed+damaged)","[2]; 5 mg/kg oral, after 28 days",activity
same,"activity against bed bugs (≥80% inhibition, killed+damaged)","[2]; 5 mg/kg oral, after 31 days",activity
same,"activity against bed bugs (≥80% inhibition, killed+damaged)","[2]; 5 mg/kg oral, after 35 days",activity
same,"activity against bed bugs (≥80% inhibition, killed+damaged)","[2]; 5 mg/kg subcutaneous, Day 0",immediate activity
same,"activity against bed bugs (≥80% inhibition, killed+damaged)",[2]; [3],activity
same,"activity against bed bugs (≥80% inhibition, killed+damaged)",[2]; [4],activity
same,"activity against bed bugs (≥80% inhibition, killed+damaged)",[2]; [5],activity
same,"activity against bed bugs (≥80% inhibition, killed+damaged)",[2]; [6],activity
same,"activity against bed bugs (≥80% inhibition, killed+damaged)",[2]; [8],activity
same,"activity against bed bugs (≥80% inhibition, killed+damaged)",[2]; [9],activity
same,"activity against bed bugs (≥80% inhibition, killed+damaged)",[2]; [10],activity
same,"activity against bed bugs (≥80% inhibition, killed+damaged)",[2]; [11],activity
same,"activity against bed bugs (≥80% inhibition, killed+damaged)",[2]; [13],activity
same,effective to control bed bugs,[2]; [12],100%
O=C(Nc1ccc(F)cc1F)c1cc(NC(=O)C2C(c3cc(C(F)(F)F)cc(C(F)(F)F)c3)C2(Cl)Cl)ccc1Cl (stereo not drawn) [Compound 472],"activity against tick nymphs (≥80% inhibition, killed+damaged)","[1]; 5 mg/kg oral, Day 0",immediate activity
same,"activity against tick nymphs (≥80% inhibition, killed+damaged)","[1]; 5 mg/kg subcutaneous, Day 0",immediate activity
same,"activity against bed bugs (≥80% inhibition, killed+damaged)","[2]; 5 mg/kg oral, Day 0",immediate activity
same,"activity against bed bugs (≥80% inhibition, killed+damaged)","[2]; 5 mg/kg subcutaneous, Day 0",immediate activity
